According to patent US20230227546A1, “TYPE 2 CYTOKINES AS PREDICTORS OF DISEASE SEVERITY AND/OR AS T[…] FOR COVID-19” (priority 2020, published 2023):

Test system: COVID-19
Assay type: in vivo, human

Dupilumab: anti-human IL4Rα monoclonal antibody that blocks IL-13 and IL-4 signaling; sold as DUPIXENT
Deceased (number of patients) With Concurrent Dupilumab (31 patients): 0 | Ventilated (number of patients) With Concurrent Dupilumab (31 patients): 0 | Hospitalized (number of patients) With Concurrent Dupilumab (31 patients, values less than 20 suppressed): <20 | Odds Ratio, Hospitalized (Dupilumab vs matched controls 1:5, conditional logistic regression): 0.64 | rate of death (compared to matched controls): lower rate | rate of hospitalization (compared to matched controls): lower rate | rate of ventilation (compared to matched controls): lower rate
